Laboratory results reported in ChEMBL document CHEMBL1147784, “Crystal structure of human ERK2 complexed with a pyrazolo[3,4-c]pyridazine derivative” (Bioorg Med Chem Lett, 2006).

These molecules were tested against Mitogen-activated protein kinase 1 (Homo sapiens, UniProt P28482) (assay: Inhibitory activity against human ERK2).
Sequence of Mitogen-activated protein kinase 1 (P28482 whole entry): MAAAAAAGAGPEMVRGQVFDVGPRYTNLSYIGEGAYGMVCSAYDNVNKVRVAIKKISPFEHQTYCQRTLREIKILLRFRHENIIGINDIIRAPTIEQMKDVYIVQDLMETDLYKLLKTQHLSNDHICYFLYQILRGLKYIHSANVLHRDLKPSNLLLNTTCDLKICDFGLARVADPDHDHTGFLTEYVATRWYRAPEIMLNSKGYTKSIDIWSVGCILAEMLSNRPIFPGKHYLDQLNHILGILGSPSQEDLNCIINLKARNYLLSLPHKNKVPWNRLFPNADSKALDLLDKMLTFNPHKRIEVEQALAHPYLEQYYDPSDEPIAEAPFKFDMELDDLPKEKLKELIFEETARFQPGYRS

| IC50 | SMILES |
| --- | --- |
| 560 nM | C=CCn1nc(N)c2cc(-c3c(-c4ccccc4)nn4ccccc34)nnc21 |
| 5100 nM | Nc1nn(CCO)c2nnc(-c3c(-c4ccccc4)nn4ccccc34)cc12 |
| 1400 nM | Cn1nc(N)c2cc(-c3c(-c4ccccc4)nn4ccccc34)nnc21 |
